Read-outs that look alike come from different tables or passages of the source.

Data set [1] can be described thus: Serum anastrozole by liquid chromatography-tandem mass spectrometry. The data set is classed as in vivo, human. Particulars: for concentration at 3 month / concentration at 1 month: human, serum. The protocol: FAI is calculated from a formula where the serum measurement of total testosterone and sex hormone binding globulin are calculated by radio immunoassay. Aromatase inhibitor serum level is determined by liquid chromatography-tandem mass spectrometry.
All thirty having serum drawn at baseline and at 1 year for serum testosterone and sex hormone binding globulin so that free-androgen index could be calculated (FAI=the ratio of the total testosterone level divided by the sex hormone binding globulin level, and then multiplied by a 100 to give a percentage).

In data set [2] the test system is mammographic breast density. Particulars: background statement; cited from earlier work.
For data set [3] the following is noted: cited from earlier work.

As for `CC(C)(C#N)c1cc(Cn2cncn2)cc(C(C)(C)C#N)c1` [anastrozole, 2,2′-[5-(1H-1,2,4-triazol-1-ylmethyl)-1,3-phenylene]bis(2-methylpropanenitrile)], the “Serum anastrazole (ng/ml) End 1st year 3 month trough, median (range)” value in data set [1] (Example 2, 30 patients, s.c. testosterone and anastrozole at 4 months intervals) is recorded as 32 (22-39) ng/ml. The concentration at 3 month is 27 ng/mL in data set [1] (female, sc, Example 2, 30 patients, s.c. testosterone and anastrozole at 4 months intervals, read-out: Serum anastrazole (ng/ml) 1st 3 month trough, median (range)); 28 ng/mL in data set [1] (sc, Serum anastrozole, Example 1, Pellet 1 (testosterone 59 mg, anastrozole 2.75 mg, s.c.), 3 month); 25 ng/mL in data set [1] (subcutaneous, Serum anastrozole, Example 1, Pellet 2 (testosterone 71 mg, anastrozole 2.75 mg), 3 month); 28 ng/mL in data set [1] (subcutaneous, Serum anastrozole, Example 1, Pellet 3 (testosterone 71 mg, anastrozole 2.75 mg), 3 month). The concentration at 1 month amounted to 38 ng/mL in data set [1] (sc, Serum anastrozole, Example 1, Pellet 1 (testosterone 59 mg, anastrozole 2.75 mg, s.c.)); 35 ng/mL in data set [1] (subcutaneous, Serum anastrozole, Example 1, Pellet 2 (testosterone 71 mg, anastrozole 2.75 mg)); 38 ng/mL in data set [1] (subcutaneous, Serum anastrozole, Example 1, Pellet 3 (testosterone 71 mg, anastrozole 2.75 mg)).

On to `CC/C(=C(\c1ccccc1)c1ccc(OCCN(C)C)cc1)c1ccccc1` [tamoxifen], for which, in data set [2], the “Effect on mammographic breast density” value was “has been shown to reduce mammographic breast density”.

For the molecule `CCCCCCCCCCC(=O)O[C@H]1CC[C@H]2[C@@H]3CCC4=CC(=O)CC[C@]4(C)[C@H]3CC[C@]12C` [testosterone undecanoate], the Oral bioavailability entry in data set [3] (by-passes the liver via the lymphatic system) was “orally bioavailable”.

Take `C[C@]12CC[C@H]3[C@@H](CCC4=CC(=O)CC[C@@]43C)[C@@H]1CC[C@@H]2O` [testosterone]: the “Fraction broken down in the liver as it is absorbed from the gut” value in data set [3] (oral delivery) was 80-90%. The “Fraction broken down in the intestines by aromatase and other metabolic pathways” value in data set [3] (oral) is given as “approximately 85%”.

The values are drawn from US10525063B2, “Methods of reducing mammographic breast density and/or breast cancer risk” (HAVAH THERAPEUTICS PTY LTD., priority 2014, dated 2020).
